Reference: patent publication US9040565B2, “1H-benzimidazole-5-carboxamides as anti-inflammatory agents” (Orexo AB, priority 2008, dated 2015)

Target: T1, recombinant human mPGES-1 (Homo sapiens, UniProt O14684)
T1 construct: made in house; host or cells: Rosetta E. coli (microsomal/membrane fraction)
T1 sequence (O14684 1-152): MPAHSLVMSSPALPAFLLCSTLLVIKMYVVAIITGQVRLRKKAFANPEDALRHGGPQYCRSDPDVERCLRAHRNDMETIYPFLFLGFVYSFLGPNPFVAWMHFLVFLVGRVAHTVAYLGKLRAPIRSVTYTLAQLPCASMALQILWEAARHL
Test: mPGES-1 inhibition, HTRF detection of PGE2 (Biological Test)
Type: biochemical
Experimental: Microsomes from Rosetta E. coli bacteria expressing recombinant human mPGES-1 is dissolved in 0.1 M KPi pH 7.4 buffer containing 2.5 mM GSH. 50 μl of the enzyme is subsequently dispensed in a 384-well plate. 0.5 μl of the inhibitor dissolved in DMSO at is thereafter added to each well and incubated for 25 minutes at room temperature.
Subsequently, 2 μl of PGH2 dissolved in an appropriate solvent is added to each well and after one minute the acidified stop solution containing FeCl2 is added. 4 μl of the total volume is transferred to a separate plate and diluted 750-fold in two separate steps before HTRF detection of PGE2.
The HTRf detection is performed by the use of a commercially available kit from CisBio essentially according to the manufacturer's protocol. Briefly, 10 μl of the diluted sample is transferred to a white 384-well plate. 5 μl of d2 and 5 μl Eu3+-Cryptate labeled anti-PGE2 is added to each well containing samples by the use of a Multidrop. The plate is covered with a plastic self-adhesive film, centrifuged at 1200 rpm for 1 minute and subsequently stored at +4° C. over night.
After over night incubation the fluorescence is measured by the use of an appropriate microplate reader. The fluorescence of europium cryptate, and d2 are measured using the following excitation and emission wavelength, europium cryptate: λmax^ex=307 nm, λmax^em=620 nm and d2: λmax^ex=620 nm, λmax^em=665 nm), respectively. The extent of the specific FRET is measured as a ratio of the emission intensity at 665 nm vs. that at 620 nm. A standard curve using synthetic PGE2 is used to quantify the amount of PGE2 in unknown samples.

Compound	inhibition at 10 µM [%]
O=C(NCc1ccccc1C(F)(F)F)c1ccc2[nH]c(Nc3c(Cl)cncc3Cl)nc2c1 [Example 493, 2-(3,5-Dichloropyridin-4-ylamino)-N-(2-trifluoromethyl-benzyl)-1H-benzimidazole-5-carboxamide]	100
CCCOc1cc2c(cc1C(=O)Nc1ccc(Br)cc1)nc(Nc1c(Cl)cncc1Cl)n2C [Example 660, 2-(3,5-Dichloropyridin-4-ylamino)-N-(4-bromophenyl)-6-propoxy-1-methyl-1H-benzimidazole-5-carboxamide]	99
O=C(Nc1ccc(Br)cc1)c1ccc2nc(Nc3c(Cl)cncc3Cl)[nH]c2c1 [Example 388, N-(4-Bromophenyl)-2-(3,5-dichloropyridin-4-ylamino)-1H-benzimidazole-5-carboxamide]	100
Cc1cnccc1Nc1nc2cc(C(=O)Nc3ccc(Br)cc3)ccc2n1C [Example 567, N-(4-Bromophenyl)-1-methyl-2-(3-methylpyridin-4-ylamino)-1H-benzimidazole-5-carboxamide]	80
Cc1ccnc(Cl)c1Nc1nc2ccc(C(=O)NC3CCC(C)(C)CC3)cc2[nH]1 [Example 531, 2-(2-Chloro-4-methylpyridin-3-ylamino)-N-(4,4-dimethylcyclohexyl)-1H-benzimidazole-5-carboxamide]	93
Cn1c(Nc2c(Cl)cncc2Cl)nc2cc(C(=O)Nc3ccc(Br)cc3)c(OCCN3CCCC3=O)cc21 [Example 664, 2-(3,5-Dichloropyridin-4-ylamino)-N-(4-bromophenyl)-6-(2-(pyrrolidin-2-on-1-yl)-ethoxy)-1-methyl-1H-benzimidazole-5-carboxamide]	99
Cn1c(Nc2c(Cl)cncc2Cl)nc2cc(C(=O)NCc3ncccc3C(F)(F)F)ccc21 [Example 553, 2-(3,5-Dichloropyridin-4-ylamino)-1-methyl-N-((3-trifluoromethyl-pyridin-2-yl)methyl)-1H-benzimidazole-5-carboxamide]	53
CN(C)c1cc2c(cc1C(=O)NC1CCC(C)(C)CC1)nc(Nc1c(Cl)cncc1Cl)n2C [Example 672, 2-(3,5-Dichloropyridin-4-ylamino)-N-(4,4-dimethyl-cyclohexyl)-6-dimethylamino-1-methyl-1H-benzimidazole-5-carboxamide]	100
Cn1c(Nc2c(Cl)cncc2Cl)nc2cc(C(=O)Nc3ccc(Br)cc3)c(OCCN3CCCC3)cc21 [Example 663, 2-(3,5-Dichloropyridin-4-ylamino)-N-(4-bromophenyl)-6-(2-(pyrrolidin-1-yl)-ethoxy)-1-methyl-1H-benzimidazole-5-carboxamide]	96
CCOc1cc2c(cc1C(=O)Nc1cc(C(F)(F)F)ccn1)nc(Nc1c(Cl)cncc1Cl)n2CC(F)(F)F [Example 705]	94
Cn1c(Nc2ccncc2Cl)nc2cc(C(=O)Nc3ccc(Br)cc3)ccc21 [Example 520, N-(4-Bromophenyl)-2-(3-chloropyridin-4-ylamino)-1-methyl-1H-benzimidazole-5-carboxamide]	97
Cn1c(Nc2c(Cl)cncc2Cl)nc2cc(C(=O)NCc3ccccc3C(F)(F)F)ccc21 [Example 467, 2-(3,5-Dichloropyridin-4-ylamino)-1-methyl-N-(2-trifluoromethyl-benzyl)-1H-benzimidazole-5-carboxamide]	96
CN1CCC(Oc2cc3c(cc2C(=O)Nc2ccc(Br)cc2)nc(Nc2c(Cl)cncc2Cl)n3C)C1 (stereo not shown) [Example 662, 2-(3,5-Dichloropyridin-4-ylamino)-N-(4-bromophenyl)-6-(N-methyl-pyrrolidin-3-yl-oxy)-1-methyl-1H-benzimidazole-5-carboxamide]	99

Results, then the compound that gave them:

inhibition at 10 µM [%]	Compound
100	CCOc1cc2[nH]c(Nc3c(Cl)cncc3Cl)nc2cc1C(=O)N[C@H]1CC[C@H](C(F)(F)F)CC1 [Example 690, 2-(3,5-Dichloropyridin-4-ylamino)-N-(trans-4-trifluoromethyl-cyclohex-1-yl)-6-ethoxy-1H-benzimidazole-5-carboxamide]
95	O=C(Nc1cc(C(F)(F)F)ccn1)c1cc2nc(Nc3c(Cl)cncc3Cl)[nH]c2cc1OC(F)F [Example 702]
84	O=C(NCc1ncccc1C(F)(F)F)c1ccc2[nH]c(Nc3c(Cl)cncc3Cl)nc2c1 [Example 565, 2-(3,5-Dichloropyridin-4-ylamino)-N-((3-trifluoromethyl-pyridin-2-yl)methyl)-1H-benzimidazole-5-carboxamide]
95	COc1cc2[nH]c(Nc3c(Cl)cncc3Cl)nc2cc1C(=O)Nc1cc(C(F)(F)F)cc(N(C)C)n1 [Example 692, 2-(3,5-Dichloropyridin-4-ylamino)-N-(6-dimethylamino-4-trifluoromethyl-pyridin-2-yl)-6-methoxy-1H-benzimidazole-5-carboxamide]
98	CCOc1cc2[nH]c(Nc3c(Cl)cncc3Cl)nc2cc1C(=O)Nc1cc(C(F)(F)F)ccn1 [Example 694, 2-(3,5-Dichloropyridin-4-ylamino)-N-(4-trifluoromethyl-pyridin-2-yl)-6-ethoxy-1H-benzimidazole-6-carboxamide]
100	O=C(Nc1cc(C(F)F)c(F)cn1)c1cc2nc(Nc3c(Cl)cncc3Cl)[nH]c2cc1OCC(F)(F)F [Example 699]
99	COc1cc2[nH]c(Nc3c(Cl)cncc3Cl)nc2cc1C(=O)Nc1ccc(Br)cn1 [Example 682, 2-(3,5-Dichloro-pyridin-4-ylamino)-N-(5-bromo-pyridin-2-yl)-6-methoxy-1H-benzimidazole-5-carboxamide]
100	CCOc1cc2[nH]c(Nc3c(Cl)cncc3Cl)nc2cc1C(=O)Nc1cc(C)cc(C(F)(F)F)n1 [Example 709]
100	O=C(Nc1ccc(F)c(C(F)F)n1)c1cc2nc(Nc3c(Cl)cncc3Cl)[nH]c2cc1OCC(F)(F)F [Example 707, 2-(3,5-Dichloropyridin-4-ylamino)-N-(6-difluoromethyl-5-fluoro-pyridin-2-yl)-6-(2,2,2-trifluoroethoxy)-1H-benzimidazole-6-carboxamide]
100	COc1cc2[nH]c(Nc3c(Cl)cncc3Cl)nc2cc1C(=O)NCc1ncccc1C1CCC1 [Example 688, 2-(3,5-Dichloro-pyridin-4-ylamino)-N-((3-cyclobutyl-pyridin-2-yl)-methyl)-6-methoxy-1H-benzimidazole-5-carboxamide]
100	COc1cc2[nH]c(Nc3c(Cl)cncc3Cl)nc2cc1C(=O)Nc1cccc(N(C)C)n1 [Example 696, 2-(3,5-Dichloropyridin-4-ylamino)-N-(6-dimethylamino-pyridin-2-yl)-6-methoxy-1H-benzimidazole-5-carboxamide]
100	CCOc1cc2[nH]c(Nc3c(Cl)cncc3Cl)nc2cc1C(=O)Nc1cc(C(F)(F)F)cc(N(C)C)n1 [Example 697]
98	O=C(Nc1ccc(Br)cc1)c1cc2nc(Nc3c(Cl)cncc3Cl)[nH]c2cc1OC(F)F [Example 703, 2-(3,5-Dichloropyridin-4-ylamino)-N-(4-bromo-phenyl)-6-difluoromethoxy-1H-benzimidazole-5-carboxamide]
100	CCOc1cc2[nH]c(Nc3c(Cl)cncc3Cl)nc2cc1C(=O)Nc1cc(C(F)F)c(F)cn1 [Example 655, 2-(3,5-Dichloro-pyridin-4-yl-amino)-6-ethoxy-N-(5-fluoro-4-difluoromethyl-pyridin-2-yl)-1H-benzimidazole-5-carboxamide]
100	O=C(N[C@H]1CC[C@H](C(F)(F)F)CC1)c1cc2nc(Nc3c(Cl)cncc3Cl)[nH]c2cc1OCC(F)(F)F [Example 675, 2-(3,5-Dichloro-pyridin-4-yl-amino)-6-(2,2,2-trifluoro-ethoxy)-N-(trans-4-trifluoromethyl-cyclohex-1-yl)-1H-benzimidazole-5-carboxamide]
100	O=C(Nc1cccc(C(F)F)n1)c1cc2nc(Nc3c(Cl)cncc3Cl)[nH]c2cc1OCC(F)(F)F [Example 708, 2-(3,5-Dichloropyridin-4-ylamino)-N-(6-difluoromethyl-pyridin-2-yl)-6-(2,2,2-trifluoroethoxy)-1H-benzimidazole-6-carboxamide]
97	CCOc1cc2[nH]c(Nc3c(Cl)cncc3Cl)nc2cc1C(=O)NCc1ncccc1Cl [Example 693, 2-(3,5-Dichloropyridin-4-ylamino)-N-((3-chloro-pyridin-2-yl)-methyl)-6-ethoxy-1H-benzimidazole-5-carboxamide]
98	O=C(Nc1ccc(Br)cc1)c1cc2nc(Nc3c(Cl)cncc3Cl)[nH]c2cc1OC1CCOC1 (stereo not shown) [Example 659, 2-(3,5-Dichloro-pyridin-4-yl-amino)-6-(tetrahydrofuran-3-yl-oxy)-N-(4-bromo-phenyl)-1H-benzimidazole-5-carboxamide]
